System: HCV replication in ET (Huh-lucubineo-ET) cell line
Test: Replicon Assay (HCV replicon luciferase, ET cell line)
Format: cell-based
Conditions: Hepatitis C virus; tested at 10 μM; ET (Huh-lucubineo-ET) replicon cells; luciferase activity measured 48-72 hours later; relative to no compound control
Description: A cell line, ET (Huh-lucubineo-ET) was used for screening of compounds of the present invention for inhibiting HCV replication. The ET cell line was stably transfected with RNA transcripts harboring a I389luc-ubi-neo/NS3-3′/ET; replicon with firefly luciferase-ubiquitin-neomycin phosphotransferase fusion protein and EMCV-IRES driven NS3-5B polyprotein containing the cell culture adaptive mutations (E1202G; T1280I; K1846T) (Krieger at al, 2001 and unpublished). The ET cells were grown in DMEM (Dulbeco's Modified Eagle's Medium), supplemented with 10% fetal calf serum, 2 mM Glutamine, Penicillin (100 IU/mL)/Streptomycin (100 μg/mL), 1× nonessential amino acids, and 250 μg/mL G418 (“Geneticin”). They were all available through Life Technologies (Bethesda, Md.). The cells were plated at 0.5-1.0×10^4 cells/well in the 96 well plates and incubated for 24 hrs before adding testing compounds. Then the compounds were added to the cells to achieve a final concentration of 0.1 nM to 50 μM and a final DMSO concentration of 0.5%. Luciferase activity were measured 48-72 hours later by adding a lysis buffer and the substrate (Catalog number Glo-lysis buffer E2661 and Bright-Glo luciferase system E2620 Promega, Madison, Wis.). Cells should not be too confluent during the assay. Percent inhibition of replication was plotted relative to no compound control. Under the same condition, cytotoxicity of the compounds was determined using cell proliferation reagent, WST-1 (Roche, Germany). The compounds showing antiviral activities, but no significant cytotoxicities were chosen to determine EC50 and TC50. For these determinations, a 10 point 2-fold serial dilution for each compound was used, which spans a concentration range of 1000 fold. EC50 and similarly TC50 values were calculated by fitting % inhibition at each concentration to the following equation:
% inhibition=100%/[(IC50/[I])^b+1]
where b is Hill's coefficient.
In some preferred embodiments compounds of Formula I will have a % inhibition of at least 20% when tested at 10 μM. In other embodiments the compounds of Formula I will have a % inhibition of at least 50% when tested at 10 μM.

Structure (SMILES) | inhibition at 10 µM [%]
O=C(NC1CC1)c1ccc(-c2ccc3[nH]c([C@@H]4CSC(c5ccncc5)N4C(=O)OCc4ccccc4)nc3c2)cc1 (stereo in doubt) [Compound 4006, (S)-4-[5-(4-Cyclopropylcarbamoyl-phenyl)-1H-benzoimidazol-2-yl]-2-pyridin-4-yl-thiazolidine-3-carboxylic acid benzyl ester] | 99.8
O=C(Nc1cccc(-c2ccc([C@@H]3CCCN3C(=O)OCc3ccccc3)cc2)c1)C1CC1 (stereo in doubt) [Compound 4009, 2-[3′-(Cyclopropanecarbonyl-amino)-biphenyl-4-yl]-pyrrolidine-1-carboxylic acid benzyl ester] | 31.7
O=C(Nc1ccc(-c2ccc([C@@H]3CCCN3C(=O)OCc3ccccc3)cc2)cc1)C1CC1 (stereo in doubt) [Compound 4026, 2-[4′-(Cyclopropanecarbonyl-amino)-biphenyl-4-yl]-pyrrolidine-1-carboxylic acid benzyl ester] | 47.6
O=C(NC1CC1)c1ccc(-c2ccc3nc([C@@H]4Cc5ccccc5N4C(=O)OCc4ccccc4)[nH]c3c2)cc1 [Compound 4010, (S)-2-[6-(4-Cyclopropylcarbamoyl-phenyl)-1H-benzoimidazol-2-yl]-2,3-dihydro-indole-1-carboxylic acid benzyl ester] | 96.8
O=C(NCc1ccc(-c2ccc3nc([C@@H]4CCCN4C(=O)OCc4ccccc4)[nH]c3c2)cc1)C1CC1 [Compound 4038, (S)-2-(6-{4-[(Cyclopropanecarbonyl-amino)-methyl]-phenyl}-1H-benzoimidazol-2-yl)-pyrrolidine-1-carboxylic acid benzyl ester] | 97
O=C(Nc1ccc(-c2ccc3nc([C@@H]4CCCN4C(=O)OCc4ccccc4)[nH]c3c2)cc1)C1CC1 [Compound 4058, (S)-2-{6-[4-(Cyclopropanecarbonyl-amino)-phenyl]-1H-benzoimidazol-2-yl}-pyrrolidine-1-carboxylic acid benzyl ester] | 97.9
